Values of other authors as cited in patent US7777053B2, “Efficient process for production of carvedilol phosphate” (Wanbury Limited, priority 2007, dated 2010).
Structures can show the parent of a compound that is named as a salt. Where two headings read alike, the source gives them in different places.

solubility (neutral or alkaline media, above pH of 9.0) [µg/mL] | saturation solubility (pH=5, room temperature) | saturation solubility (pH=7, room temperature) | aqueous solubility (as described in US 2005/0277689 A1, compared with carvedilol) | SMILES
< 1 | about 100 μg/ml | about 23 μg/ml | – | COc1ccccc1OCCNCC(O)COc1cccc2[nH]c3ccccc3c12 (stereo not shown) [Carvedilol, 1-(9H-carbazol-4yloxy)-3-[[2-(2-methoxyphenoxy)-ethyl]amino]-propan-2-ol]
– | – | – | much higher aqueous solubility | COc1ccccc1OCCNCC(O)COc1cccc2[nH]c3ccccc3c12 (stereo not shown) [carvedilol phosphate, phosphate salts of 1-(9H-carbazol-4yloxy)-3-[[2-(2-methoxyphenoxy)ethyl]amino]-propan-2-ol]
